# Results: US20120226031A1, “PALMARUMYCIN BASED INHIBITORS OF THIOREDOXIN AND METHODS OF USING SAME” (ARIZONA BOARD OF REGENTS, ACTING ON BEHALF OF THE …, priority 2005, published 2012)
# Where two headings read alike, the source gives them in different places.
# Experiments:
# [1] = test system: MCF-7 human breast cancer cells; experiment: MCF-7 breast cancer cell growth inhibition; type: cell-based; conditions: Homo sapiens, MCF7
# Protocol: MCF-7 human breast cancer cells were grown in medium containing 1 μM selenium (Se) for 7 days which increased cellular thioredoxin reductase activity by about 5 fold as previously reported.
# [2] = target: T1, human glutathione reductase (Homo sapiens, UniProt P00390); experiment: Inhibition of human glutathione reductase (selectivity); type: biochemical
# T1 sequence (P00390 45-522 limits assumed): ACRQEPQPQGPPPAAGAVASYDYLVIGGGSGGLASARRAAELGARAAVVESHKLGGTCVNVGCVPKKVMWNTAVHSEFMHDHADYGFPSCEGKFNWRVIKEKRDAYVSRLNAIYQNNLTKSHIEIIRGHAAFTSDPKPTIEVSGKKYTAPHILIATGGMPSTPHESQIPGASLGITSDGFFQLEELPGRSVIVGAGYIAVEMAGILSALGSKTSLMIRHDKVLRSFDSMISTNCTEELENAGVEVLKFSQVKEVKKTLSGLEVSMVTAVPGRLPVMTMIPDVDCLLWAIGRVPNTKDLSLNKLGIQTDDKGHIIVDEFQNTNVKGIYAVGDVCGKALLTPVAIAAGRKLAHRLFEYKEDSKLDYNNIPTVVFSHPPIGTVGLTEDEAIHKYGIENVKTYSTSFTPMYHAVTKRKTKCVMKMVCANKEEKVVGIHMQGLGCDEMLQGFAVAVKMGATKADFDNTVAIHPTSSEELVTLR
# Protocol: Based upon the observation that PX-916 was rapidly converted to PX-960 in aqueous solution, the ability of PX-960 to inhibit purified human TR was measured and found to be similar to that of PX-916 (Table 2). PX-916 was a selective inhibitor of human TR compared to two other NADPH dependent reductases with a selectivity of at least 200 for human glutathione reductase and human cytochrome P-450 reductase (Table 3).
# [3] = test system: SHP-77 human small cell lung cancer; experiment: Antitumor activity, SHP-77 small cell lung cancer xenograft; type: in vivo, mouse
# Protocol: FIG. 4. Antitumor activity of PX-916. A. Female beige nude mice were inoculated subcutaneously (s.c.) with 10^7 A-673 rhabdomyosarcoma cells. When tumors were 100 mm^3 on day 8 (arrow) dosing was begun with (∘) vehicle alone; (▴) PX-916 10 mg/kg intraperitoneally (i.p.) daily for 4 doses. B. Female scid mice were inoculated s.c. with 10^7 SHP-77 human small cell lung cancer cells. When tumors were 130 mm^3 on day 17 (arrow) dosing was begun with (∘) vehicle alone; (▪) PX-916 10 mg/kg i.v. daily for 8 doses; (▴) PX-916 25 mg/kg i.v. daily for 5 doses. C. Female scid mice implanted 1 day previously with a 17-β-estradiol 60 day slow release pellet were inoculated s.c. with 10^7 MCF-7 human breast cancer cells. When tumors were 180 mm^3 on day 8 (arrow) dosing was begun with (∘) vehicle alone; (⋄) PX-916 27.5 mg/kg i.v. daily for 5 doses. In both A and B values are the mean of 8 mice per group and bars are SE.
# A single intravenous (i.v.) dose of PX-916 of 25 mg/kg inhibited MCF-7 human tumor xenograft TR up to about 60% at 24 hr and the inhibition was maintained for at least 48 hr (FIG. 3C). […] In this study 3 of eight nice had no histologically detectable tumor when the study was terminated on day 42.
# VEGF = experiment: Tumor VEGF immunohistochemistry in MCF-7 xenografts; type: in vivo, mouse; conditions: five daily doses of 25 mg/kg, 24 hours after last dose
# Protocol: FIG. 5. Inhibition of tumor HIF-1α, VEGF and thioredoxin reductase by repeated administration of PX-916. Female scid mice were implanted 1d previously with a 90-d 17β-estradiol slow release pellet were inoculated s.c. with 10^7 MCF-7 human breast cancer cells. When the tumors were 300 mm^3, vehicle or 25 mg/kg/d PX-916 was given i.v. for five doses. Twenty four hours later, the tumors were removed and stained by immunohistochemistry for HIF-1α and VEGF (A) or assayed for thioredoxin reductase activity (B). Columns mean of four mice, SE. P≦0.05.
# Levels of the HIF-1α transcription factor and its downstream target VEGF are increased by thioredoxin-1 expression. We examined the effect of PX-916 administration on tumor HIF-1α and VEGF levels (FIG. 5A). Twenty-four hours after the last dose of five daily doses of PX-916 of 25 mg/kg, there was a decrease in MCF-7 xenograft staining for both HIF-1α and VEGF. At the same time, levels of tumor thioredoxin reductase activity were decreased by 75% (FIG. 5B).
# [4] = Toxicity in female scid mice; type: in vivo, mouse
# Aqueous solubility = type: physicochemical
# [5] = Plasma levels in mice after i.v. administration; type: in vivo, mouse; parameters: dose or concentration left out as unconfirmed; conditions: PX-916 i.v. to mice, 5 minutes after administration
# Protocol: Two metabolite peaks could be seen at 5 minutes, but were undetectable by 30 minutes.
# [6] = 10 mg/kg i.v. daily for 8 doses
# [7] = 25 mg/kg i.v. daily for 5 doses
# [8] = 25 mg/kg i.v. x5, 24 hr after last dose
# [9] = 25 mg/kg iv QD × 5, 24 hr after last dose, mean ± SE
structure (smiles),measurement,setting,value
"NCC(=O)Oc1ccc2c3c(cccc13)OC1(C=CC(=O)c3c(O)cccc31)O2 (stereo not shown) [PX-916, O-glycyl naphthoquinone spiroketal]",IC50,"[1]; Table 1, read-out: MCF-7 growth inhibition IC50",3.1 µM
same,IC50,"[1]; Table 2, read-out: Inhibition of MCF-7 breast cancer cell growth IC50",3.1 µM
same,IC50,[1]; read-out: IC50 MCF-7 cell growth,3.1 µM
same,concentration increase needed to inhibit glutathione reductase,[2],greater than 100 fold
same,selectivity for human TR vs human glutathione reductase,[2],at least 200
same,Selectivity for TR vs glutathione reductase,[2]; Table 3,>200
same,IC50,"[2]; Table 3, read-out: Inhibition IC50, glutathione reductase (red blood cell)",> 50 µM
same,tumor growth inhibition,[3]; [6],39%
same,tumor growth rate,[3]; [6],about 91±24 mm^3/day
same,mice with no histologically detectable tumor on day 42,[3]; [7],3 of eight
same,tumor growth inhibition,[3]; [7],82%
same,tumor growth rate,"[3]; 25 mg/kg i.v. daily for 5 doses, 5 days after end of dosing",27 mm^3/day
same,tumor regressions,[3]; in words,complete tumor regressions were seen in some mice
same,MCF-7 xenograft staining for VEGF,VEGF,decrease
same,major toxicities observed,[4]; [8],neutropenia and thrombocytopenia
same,plasma liver enzymes,[4]; [8],no observable increase
same,weight loss,[4]; [8],no significant weight loss
same,ALT,[4]; [9],39.8 ± 12.8 U/I
same,AST,[4]; [9],166.9 ± 29.8 U/I
same,Hb,[4]; [9],14.9 ± 0.4 g/dL
same,LY,[4]; [9],0.3 ± 0.1 K/μl
same,MO,[4]; [9],005 ± 0.01 K/μl
same,NE,[4]; [9],0.9 ± 0.3 K/μl
same,PLT,[4]; [9],436 ± 142 K/μl
same,RBC,[4]; [9],8.9 ± 0.4 M/μl
same,WB,[4]; [9],1.3 ± 0.6 K/μl
same,Δbodywt,[4]; [9],-0.6 ± 0.3 g
same,tolerability,"[4]; 5 daily doses of 25 mg/kg i.v., female scid mice",tolerated
same,lethality,"[4]; single i.v. dose of 50 mg/kg, female scid mice",lethal
same,apparent maximum solubility in water,Aqueous solubility,around 10 mg
same,improvement of aqueous solubility vs PX-960,Aqueous solubility,1-2 orders of magnitude
same,solubility,"Aqueous solubility; 20% β-cyclodextrin, aqueous with cosolvent or surfactant or cyclodextrin, read-out: solubility with 20% β-cyclodextrin",2000 µg/mL
same,solubility,"Aqueous solubility; water, read-out: water solubility",700 µg/mL
same,detection of PX-916 in plasma,[5],could not be detected
